# Results reported in patent US9901577B2, “Oxoquinazolinyl-butanamide derivatives” (MERCK PATENT GMBH, priority 2013, dated 2018).
# Read-outs that look alike come from different tables or passages of the source.
# Columns and labels:
# TNKS1 = target: T1, TNKS1 (Homo sapiens, UniProt O95271); experiment: TNKS1 activity ELISA (autoparsylation assay); assay type: biochemical
# T1 construct: GST-tagged Tnks-1 (1023-1327 aa, prepared in-house); made in house
# Method: (§1) Description of the TNKS1 and TNKS2 ELISA Assay
# (§2) Biochemical Activity Testing of TNKS 1 and 2: Activity ELISA (Autoparsylation Assay)
# (§3) For analysis of autoparsylation activity of TNKS 1 and 2 an activity ELISA iss performed: In the first step GST tagged TNKS is captured on a Glutathione coated plate. Then the activity assay with biotinylated NAD is performed in the absence/presence of the compounds. During the enzymatic reaction GST tagged TNKS transfers biotinylated ADP-ribose to itself from biotinylated NAD as co-substrate. For the detection streptavidin-HRP conjugate is added that binds to the biotinylated TNKS and is thereby captured to the plates. The amount of biotinylated resp. autoparsylated TNKS is detected with a luminescence substrate for HRP. The level of the luminescence signal correlates directly with the amount of autoparsylated TNKS and therefore with activity of TNKS.
# (§4) The activity ELISA is performed in 384 well Glutathione coated microtiter plates (Express capture Glutathione coated plate, Biocat, Heidelberg, Germany). The plates are pre-equilibrated with PBS. […] The plates are washed 3 times with PBS-Tween-20. The wells are blocked by incubation at room temperature for 20 minutes with 50 μl blocking buffer (PBS, 0.05% Tween-20, 0.5% BSA). Afterwards the plates are washed 3 times with PBS-Tween-20. […] The reaction is stopped by 3 times washing with PBS-Tween-20. For the detection 50 μl of 20 ng/μl Streptavidin, HRP conjugate (MoBiTec, Göttingen, Germany) in PBS/0.05% Tween-20/0.01% BSA are added and the plates are incubated for 30 minutes at room temperature. After three times washing with PBS-Tween-20 50 μl of SuperSignal ELISA Femto Maximum sensitivity substrate solution (ThermoFisherScientific (Pierce), Bonn, Germany) are added. Following a 1 minute incubation at room temperature luminescence signals are measured with an Envision multimode reader (Perkin Elmer LAS Germany GmbH) at 700 nm. The full value used is the inhibitor-free reaction. […] The inhibitory values (IC50) are determined using either the program Symyx Assay Explorer® or Condosseo® from GeneData.
# TNKS2 = target: T2, TNKS2 (Homo sapiens, UniProt Q9H2K2); experiment: TNKS2 activity ELISA (autoparsylation assay); assay type: biochemical
# T2 construct: GST-tagged Tnks-2 (873-1166 aa, prepared in-house); made in house
# T2 sequence (Q9H2K2 873-1166): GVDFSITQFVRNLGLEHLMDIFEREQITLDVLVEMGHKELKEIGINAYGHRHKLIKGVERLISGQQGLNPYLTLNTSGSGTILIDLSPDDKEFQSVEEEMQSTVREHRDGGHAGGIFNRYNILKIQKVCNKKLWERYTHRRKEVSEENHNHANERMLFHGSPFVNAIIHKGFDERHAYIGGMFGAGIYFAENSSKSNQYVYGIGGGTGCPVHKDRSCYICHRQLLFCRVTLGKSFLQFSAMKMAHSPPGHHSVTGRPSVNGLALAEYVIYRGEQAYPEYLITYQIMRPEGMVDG
# Method: as §1, §2, §3, §4
# PARP-1 = target: T3, PARP-1 (Homo sapiens, UniProt P09874); experiment: PARP-1 autoparsylation assay (HTRF); assay type: biochemical; conditions: His-tagged Parp-1, autoparsylation
# T3 construct: purchased Enzo Life Sciences GmbH, Lörrach, Germany
# T3 sequence (P09874 whole entry): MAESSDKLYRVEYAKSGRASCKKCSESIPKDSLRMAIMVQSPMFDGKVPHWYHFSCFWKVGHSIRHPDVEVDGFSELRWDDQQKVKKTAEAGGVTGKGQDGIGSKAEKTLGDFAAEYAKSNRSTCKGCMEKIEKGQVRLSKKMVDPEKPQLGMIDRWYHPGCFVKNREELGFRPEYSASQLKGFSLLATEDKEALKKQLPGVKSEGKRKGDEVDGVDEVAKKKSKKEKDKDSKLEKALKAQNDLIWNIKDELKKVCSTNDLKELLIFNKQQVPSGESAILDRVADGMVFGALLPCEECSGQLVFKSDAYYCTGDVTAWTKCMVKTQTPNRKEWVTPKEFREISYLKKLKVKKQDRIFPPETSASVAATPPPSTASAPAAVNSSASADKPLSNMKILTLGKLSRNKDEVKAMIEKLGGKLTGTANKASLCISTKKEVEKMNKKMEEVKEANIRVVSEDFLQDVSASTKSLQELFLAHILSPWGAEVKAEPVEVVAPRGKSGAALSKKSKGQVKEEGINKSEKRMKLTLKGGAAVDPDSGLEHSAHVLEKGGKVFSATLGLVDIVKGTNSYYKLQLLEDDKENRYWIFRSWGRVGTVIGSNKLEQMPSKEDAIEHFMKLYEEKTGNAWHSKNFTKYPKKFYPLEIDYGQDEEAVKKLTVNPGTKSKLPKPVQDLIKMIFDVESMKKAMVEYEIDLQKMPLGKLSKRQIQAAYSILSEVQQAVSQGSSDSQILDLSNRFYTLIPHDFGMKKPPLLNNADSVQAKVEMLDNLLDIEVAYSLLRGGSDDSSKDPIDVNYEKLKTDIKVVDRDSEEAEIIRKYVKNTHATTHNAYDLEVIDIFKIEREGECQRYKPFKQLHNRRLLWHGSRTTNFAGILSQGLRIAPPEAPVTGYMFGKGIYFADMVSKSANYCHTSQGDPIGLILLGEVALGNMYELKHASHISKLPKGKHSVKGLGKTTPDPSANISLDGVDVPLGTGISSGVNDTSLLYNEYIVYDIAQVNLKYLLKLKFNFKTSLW
# Tankyrase = tested on: T4, Tankyrase; experiment: Measurement of cellular inhibition of Tankyrase (Axin2 level in DLD1 cells, Luminex based assay); assay type: cell-based; conditions: read-out: EC50 [M] TNKS cellular assay; DLD1 cells, Axin2 increase, 24 hours
# T4 construct: TNKS cellular assay; other: DLD1 cells, Axin2 increase, 24 hours
# Method: Measurement of Cellular Inhibition of Tankyrase
# Cells of the colon carcinoma cell line DLD1 are plated in 96 well plates with 1.5×10^4 cells per well. Next day, cells are treated with a serial dilution of test compound in seven steps as triplicates with a final DMSO concentration of 0.3%. […] The amount of isolated Axin2 protein is determined in a Luminex^200 machine (Luminex Corporation) according to the manufacturer's instruction by counting 100 events per well. […] As controls cells are treated with solvent alone (neutral control) and with a Tankyrase reference inhibitor IWR-2 (3E-06 M) which refers as control for maximum increase of Axin2. For analysis, the obtained data are normalized against the untreated solvent control and fitted for determination of the EC50 values using the Assay Explorer software (Accelrys).
# [1] = GST-tagged Tnks-1, read-out: IC50 [M] TNKS1 ELISA
# [2] = GST-tagged Tnks-2, read-out: IC50 [M] TNKS2 ELISA
# T1 sequence (O95271 1023-1327): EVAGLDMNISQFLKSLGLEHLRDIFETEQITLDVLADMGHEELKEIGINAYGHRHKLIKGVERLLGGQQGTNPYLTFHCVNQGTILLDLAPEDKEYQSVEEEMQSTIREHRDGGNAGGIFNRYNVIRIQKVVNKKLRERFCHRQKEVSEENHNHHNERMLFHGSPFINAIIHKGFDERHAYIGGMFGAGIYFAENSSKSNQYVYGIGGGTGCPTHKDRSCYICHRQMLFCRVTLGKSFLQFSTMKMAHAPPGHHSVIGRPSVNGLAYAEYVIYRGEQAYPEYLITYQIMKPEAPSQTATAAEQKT
SMILES,IC50 (TNKS1; [1]) [M],IC50 (TNKS2; [2]) [M],IC50 (PARP-1) [nM],EC50 (Tankyrase) [M],IC50 (TNKS1) [M],IC50 (TNKS2) [M]
"COc1ccc(C(=O)C2CCN(C(=O)CCCc3nc4c(F)cccc4c(=O)[nH]3)CC2)cc1C [Compound A29, 8-Fluoro-2-{4-[4-(4-methoxy-3-methyl-benzoyl)-piperidin-1-yl]-4-oxo-butyl}-3H-quinazolin-4-one]",1.2e-10,< 1e-10,2600,6.2e-10,,
"COc1ccc(C(=O)C2CCN(C(=O)CCCc3nc4c(F)cccc4c(=O)[nH]3)CC2)cc1F [Compound A26, 8-Fluoro-2-{4-[4-(3-fluoro-4-methoxy-benzoyl)-piperidin-1-yl]-4-oxo-butyl}-3H-quinazolin-4-one]",3e-10,2e-10,1300,1.3e-09,,
"O=C(c1ccc(-c2cnn(CCN3CCCC3)c2)cc1)C1CCN(C(=O)CCCc2nc3ccccc3c(=O)[nH]2)CC1 [Compound A12, 2-[4-oxo-4-(4-{4-[1-(2-pyrrolidin-1-yl-ethyl)-1H-pyrazol-4-yl]-benzoyl}-piperidin-1-yl)-butyl]-3H-quinazolin-4-one]",2.5e-10,3.5e-10,650,6.8e-09,,
"O=C(c1ccccc1)C1CCN(C(=O)CCCc2nc3ccccc3c(=O)[nH]2)CC1 [Compound A2, 2-[4-(4-benzoyl-piperidin-1-yl)-4-oxo-butyl]-3H-quinazolin-4-one]",7.3e-10,5.5e-10,730,6.5e-08,,
"Cc1cc(F)cc2c(=O)[nH]c(CCCC(=O)N3CCC(C(=O)c4ccccc4)CC3)nc12 [Compound A3, 2-[4-(4-benzoyl-piperidin-1-yl)-4-oxo-butyl]-6-fluoro-8-methyl-3H-quinazolin-4-one]",2.2e-10,1.3e-10,29,3.4e-09,,
"COc1ccc(C(=O)C2CCN(C(=O)CCCc3nc4c(F)cc(F)cc4c(=O)[nH]3)CC2)cc1 [Compound A5, 6,8-difluoro-2-{4-[4-(4-methoxy-benzoyl)-piperidin-1-yl]-4-oxo-butyl}-3H-quinazolin-4-one]",8.7e-11,1.6e-10,780,2.6e-09,,
"Cc1cccc(C(=O)C2CCN(C(=O)CCCc3nc4ccccc4c(=O)[nH]3)CC2)c1 [Compound A7, 2-{4-[4-(3-methyl-benzoyl)-piperidin-1-yl]-4-oxo-butyl}-3H-quinazolin-4-one]",,,810,2e-08,2.2e-10,1.9e-10
"CC(C)(O)c1ccc(C(=O)C2CCN(C(=O)CCCc3nc4ccc(F)cc4c(=O)[nH]3)CC2)cc1 [Compound A39, 6-Fluoro-2-(4-{4-[4-(1-hydroxy-1-methyl-ethyl)-benzoyl]-piperidin-1-yl}-4-oxo-butyl)-3H-quinazolin-4-one]",9.6e-09,,270,,,
"N#Cc1ccc(OC2CCN(C(=O)CCCc3nc4c(F)cccc4c(=O)[nH]3)CC2)cc1 [Compound A27, 4-{1-[4-(8-Fluoro-4-oxo-3,4-dihydro-quinazolin-2-yl)-butyryl]-piperidin-4-yloxy}-benzonitrile]",,,1.3,4.4e-07,1.5e-07,8.6e-08
"COc1ccc(C(=O)C2CCN(C(=O)CCCc3nc4c(F)cccc4c(=O)[nH]3)CC2)cn1 [Compound A33, 8-Fluoro-2-{4-[4-(6-methoxy-pyridine-3-carbonyl)-piperidin-1-yl]-4-oxo-butyl}-3H-quinazolin-4-one]",1.3e-09,5.2e-10,5000,1.3e-08,,
"COc1ccc(C(=O)C2CCN(C(=O)CCCc3nc4c(F)cc(F)cc4c(=O)[nH]3)CC2)cc1C [Compound A14, 6,8-difluoro-2-[4-[4-(4-methoxy-3-methyl-benzoyl)-1-piperidyl]-4-oxo-butyl]-3H-quinazolin-4-one]",8.6e-11,1.6e-10,1000,3.3e-09,,
"COc1ccc(C(=O)C2CCN(C(=O)CCCc3nc4c(F)cccc4c(=O)[nH]3)CC2)cc1 [Compound A25, 8-Fluoro-2-{4-[4-(4-methoxy-benzoyl)-piperidin-1-yl]-4-oxo-butyl}-3H-quinazolin-4-one]",2.8e-10,2e-10,2100,2.1e-09,,
"Nc1ncc(C2CCN(C(=O)CCCc3nc4ccc(F)cc4c(=O)[nH]3)CC2)cc1-c1ncccn1 [Compound A32, 2-[4-(6-Amino-5-pyrimidin-2-yl-3′,4′,5′,6′-tetrahydro-2′H-[3,4]bipyridinyl-1′-yl)-4-oxo-butyl]-6-fluoro-3H-quinazolin-4-one]",3.2e-10,3.4e-10,600,2.3e-09,,
"N#Cc1cc(C2CCN(C(=O)CCCc3nc4c(F)cccc4c(=O)[nH]3)CC2)cnc1N [Compound A34, 6-Amino-1′-[4-(8-fluoro-4-oxo-3,4-dihydro-quinazolin-2-yl)-butyryl]-1′,2′,3′,4′,5′,6′-hexahydro-[3,4]bipyridinyl-5-carbonitrile]",3.3e-09,1.6e-09,2700,3.4e-08,,
"O=C(c1ccccc1)C1CCN(C(=O)CCCc2nc3c(F)cc(F)cc3c(=O)[nH]2)CC1 [Compound A6, 2-[4-(4-benzoyl-piperidin-1-yl)-4-oxo-butyl]-6,8-difluoro-3H-quinazolin-4-one]",3.8e-10,9.3e-10,650,,,
"CCn1cc(-c2ccc(C(=O)C3CCN(C(=O)CCCc4nc5ccccc5c(=O)[nH]4)CC3)cc2)cn1 [Compound A10, 2-(4-{4-[4-(1-ethyl-1H-pyrazol-4-yl)-benzoyl]-piperidin-1-yl}-4-oxo-butyl)-3H-quinazolin-4-one]",,,100,4.9e-09,1e-10,1.6e-10
"COc1cccc(C(=O)C2CCN(C(=O)CCCc3nc4ccccc4c(=O)[nH]3)CC2)c1 [Compound A9, 2-{4-[4-(3-methoxy-benzoyl)-piperidin-1-yl]-4-oxo-butyl}-3H-quinazolin-4-one]",1.9e-10,3.3e-10,740,1.9e-08,,
"CC(C)(O)c1ccc(C(=O)C2CCN(C(=O)CCCc3nc4ccccc4c(=O)[nH]3)CC2)cc1 [Compound A38, 2-(4-{4-[4-(1-Hydroxy-1-methyl-ethyl)-benzoyl]-piperidin-1-yl}-4-oxo-butyl)-3H-quinazolin-4-one]",2.2e-08,8.4e-09,430,,,
"O=C(c1ccc(F)cc1)C1CCN(C(=O)CCCc2nc3ccc(F)cc3c(=O)[nH]2)CC1 [Compound A23, 6-Fluoro-2-{4-[4-(4-fluoro-benzoyl)-piperidin-1-yl]-4-oxo-butyl}-3H-quinazolin-4-one]",8.4e-10,5.9e-10,650,,,
"CC(C)(O)c1ccc(C(=O)C2CCN(C(=O)CCCc3nc4c(F)cccc4c(=O)[nH]3)CC2)cc1 [Compound A37, 8-Fluoro-2-(4-{4-[4-(1-hydroxy-1-methyl-ethyl)-benzoyl]-piperidin-1-yl}-4-oxo-butyl)-3H-quinazolin-4-one]",1.1e-08,,4300,,,
"Cn1ccnc1C(=O)C1CCN(C(=O)CCCc2nc3ccccc3c(=O)[nH]2)CC1 [Compound A40, 2-{4-[4-(1-methyl-1H-imidazole-2-carbonyl)-piperidin-1-yl]-4-oxo-butyl}-3H-quinazolin-4-one]",,6.1e-08,3200,,8.2e-08,
